One assay deals with T1, Brain AChE (Rattus norvegicus, UniProt P37136).
T1 construct: corpora striata dissected free, weighed and homogenized in 19 volumes; from tissue; host or cells: corpora striata of male Wistar rats, whole homogenate
Briefly: In vitro inhibition of acetylcholinesterase activity in rat striatum. Format: biochemical. On the procedure: In Vitro Inhibition of Acetylcholinesterase Activity in Rat Striatum
The method described below was used in this invention for assaying cholinesterase activity. This is a modification of the method of Ellman et al., Biochem. Pharmacol. 7, 88 (1961).
4. A 2 mM stock solution of the test drug is made up in a suitable solvent and brought to volume with 0.5 mM DTNB (reagent 3).
Drugs are serially diluted (1:10) such that the final concentration (in cuvette) is 10^-4 M and screened for activity. If active, IC50 values are determined from the inhibitory activity of subsequent concentrations.
Male Wistar rats are decapitated, brains rapidly removed, corpora striata dissected free, weighed and homogenized in 19 volumes (approximately 7 mg protein/ml) of 0.05M phosphate buffer, pH 7.2 using a Potter-Elvehjem homogenizer. A 25 microliter aliquot of the homogenate is added to 1.0 milliter vehicle or various concentrations of the test drug and preincubated for 10 minutes at 37° C.
Enzyme activity is measured with the Beckman DU-50 spectrophotometer. This method can be used for IC50 determinations and for measuring kinetic constants.
Reagents are added to the blank and sample cuvettes as follows:
Blank values are determined for each run to control for non-enzymatic hydrolysis of substrate and these values are automatically subtracted by the kindata program available on kinetics soft-pac module. This program also calculates the rate of absorbance change for each cuvette.
Substrate concentration is 10 mM diluted 1:2 in assay yielding final concentration of 5 mM. DTNB concentration is 0.5 mM yielding 0.25 mM final concentration. [formula] IC50 values are calculated from log-probit analysis.

The next assay concerns monoamine oxidase. The conditions noted are these: literature reference (2); cited from earlier work.
In a further assay the target is T2, MAO-A (Rattus norvegicus, UniProt P21396).
T2 construct: the whole brain without cerebellum was dissected rapidly and frozen on dry ice; from tissue; host or cells: whole brain without cerebellum of orally dosed male Wistar rats, homogenate
T2 sequence (P21396 1-526): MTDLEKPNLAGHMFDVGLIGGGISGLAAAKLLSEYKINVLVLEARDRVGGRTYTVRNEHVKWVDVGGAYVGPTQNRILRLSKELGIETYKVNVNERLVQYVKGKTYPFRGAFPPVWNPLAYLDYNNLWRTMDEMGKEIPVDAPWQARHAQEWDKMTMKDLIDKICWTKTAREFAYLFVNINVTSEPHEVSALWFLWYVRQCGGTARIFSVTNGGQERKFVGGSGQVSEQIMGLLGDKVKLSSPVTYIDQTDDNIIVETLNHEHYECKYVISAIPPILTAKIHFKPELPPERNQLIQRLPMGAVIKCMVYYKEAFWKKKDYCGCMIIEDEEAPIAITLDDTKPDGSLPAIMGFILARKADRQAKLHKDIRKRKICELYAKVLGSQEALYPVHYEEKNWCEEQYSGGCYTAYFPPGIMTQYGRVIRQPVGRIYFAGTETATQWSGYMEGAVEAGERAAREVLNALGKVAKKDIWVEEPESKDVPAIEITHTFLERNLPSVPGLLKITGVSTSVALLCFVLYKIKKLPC
Briefly: Ex vivo monoamine oxidase inhibition assay, Type A. Type of assay: in vivo. The conditions noted are these: po. The protocol: (§1) The enzyme monoamine oxidase (MAO) exists in two catalytically distinguishable forms termed MAO-A and MAO-B. The ability of the compounds of the invention to inhibit MAO ex vivo in the rat was determined using a procedure adapted from the procedure set forth in The Journal of Pharmacology and Experimental Therapeutics, Vol. 248, No. 1, (1989), pp. 400-414.
(§2) The compound to be tested was administered to male Wistar rats orally. At specified times after administration the rats were decapitated and the whole brain without cerebellum was dissected rapidly and frozen on dry ice. The samples were stored at -80° C. until measurement of the MAO activity. After thawing, the tissues were homogenized in 5 volumes of 0.1 mol/l of potassium-phosphate buffer, pH 7.4, using all glass homogenisers. MAO activity was determined essentially as described by Wurtman and Axelrod. Biochem. Pharmacol. 12: 1439-1441, (1963).
(§3) The enzyme reaction was started by addition of 80 μl of the MAO-A substrate [^3 H]-5-HT (0.96 mCi/mmol, final amine concentration is 200 μM or of the MAO-B substrate [^14 C]PEA (0.192 mCi/mmol, final amine concentration is 200 μM and the incubation continued for 10 minutes at 37° C. Then, the reaction was stopped by addition of 200 μl of 2N HCl, and the deaminated metabolites were extracted by vigorous shaking for 10 minutes with 5 ml of diethylether (5-HT-extraction) or n-heptane (PEA-extraction). After centrifugation (1000×g; 30 sec) the water-phase was frozen in dry ice and the organic layer poured into plastic vials containing 5 ml of scintillation cocktail. Finally, the radioactivity was determined in a scintillation spectrometer. Reaction mixtures as described above but lacking the homogenate served as blanks.

The target in the next assay is T3, MAO-B (Rattus norvegicus, UniProt P19643).
T3 construct: the whole brain without cerebellum was dissected rapidly and frozen on dry ice; from tissue; host or cells: whole brain without cerebellum of orally dosed male Wistar rats, homogenate
T3 sequence (P19643 1-520): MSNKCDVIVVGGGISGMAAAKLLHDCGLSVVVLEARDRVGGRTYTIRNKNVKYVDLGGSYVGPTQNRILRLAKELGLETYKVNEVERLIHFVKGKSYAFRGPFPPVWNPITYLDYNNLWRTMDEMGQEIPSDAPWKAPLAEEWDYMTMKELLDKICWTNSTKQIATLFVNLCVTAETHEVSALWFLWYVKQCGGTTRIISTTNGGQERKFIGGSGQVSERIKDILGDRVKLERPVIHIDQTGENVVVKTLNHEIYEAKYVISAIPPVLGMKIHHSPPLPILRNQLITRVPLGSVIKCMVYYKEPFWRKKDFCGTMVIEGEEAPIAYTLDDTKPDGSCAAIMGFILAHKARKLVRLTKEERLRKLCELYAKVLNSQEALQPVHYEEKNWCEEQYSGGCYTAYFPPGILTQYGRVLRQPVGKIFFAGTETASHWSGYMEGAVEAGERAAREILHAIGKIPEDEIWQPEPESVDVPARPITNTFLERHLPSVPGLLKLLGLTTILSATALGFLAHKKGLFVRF
Kind of assay: Ex vivo monoamine oxidase inhibition assay, Type B. Type of assay: in vivo. The conditions noted are these: po. The protocol: as §1, §2, §3

Where [1] appears, read: rat striatum homogenate, pH 7.2, read-out: Inhibitory Concentration IC50 Brain AChE.
Where [2] appears, read: 50 mg/kg, p.o., 0.5 h, read-out: Ex vivo inhibition (%) of monoamine oxidase Type A.
Setting [3] is: 50 mg/kg, p.o., 1.0 h, read-out: Ex vivo inhibition (%) of monoamine oxidase Type A.
[4] abbreviates: 50 mg/kg, p.o., 4.0 h, read-out: Ex vivo inhibition (%) of monoamine oxidase Type A.
Setting [5] is: 50 mg/kg, p.o., 24.0 h, read-out: Ex vivo inhibition (%) of monoamine oxidase Type A.
Setting [6] is: 50 mg/kg, p.o., 0.5 h, read-out: Ex vivo inhibition (%) of monoamine oxidase Type B.
The mark [7] stands for this setting: 50 mg/kg, p.o., 1.0 h, read-out: Ex vivo inhibition (%) of monoamine oxidase Type B.
Where [8] appears, read: 50 mg/kg, p.o., 4.0 h, read-out: Ex vivo inhibition (%) of monoamine oxidase Type B.
Setting [9] is: 50 mg/kg, p.o., 24.0 h, read-out: Ex vivo inhibition (%) of monoamine oxidase Type B.

Counter-ions that a name gives are not always drawn. Like-named read-outs stand apart in the source and are kept apart here.

T1 sequence (P37136 32-614): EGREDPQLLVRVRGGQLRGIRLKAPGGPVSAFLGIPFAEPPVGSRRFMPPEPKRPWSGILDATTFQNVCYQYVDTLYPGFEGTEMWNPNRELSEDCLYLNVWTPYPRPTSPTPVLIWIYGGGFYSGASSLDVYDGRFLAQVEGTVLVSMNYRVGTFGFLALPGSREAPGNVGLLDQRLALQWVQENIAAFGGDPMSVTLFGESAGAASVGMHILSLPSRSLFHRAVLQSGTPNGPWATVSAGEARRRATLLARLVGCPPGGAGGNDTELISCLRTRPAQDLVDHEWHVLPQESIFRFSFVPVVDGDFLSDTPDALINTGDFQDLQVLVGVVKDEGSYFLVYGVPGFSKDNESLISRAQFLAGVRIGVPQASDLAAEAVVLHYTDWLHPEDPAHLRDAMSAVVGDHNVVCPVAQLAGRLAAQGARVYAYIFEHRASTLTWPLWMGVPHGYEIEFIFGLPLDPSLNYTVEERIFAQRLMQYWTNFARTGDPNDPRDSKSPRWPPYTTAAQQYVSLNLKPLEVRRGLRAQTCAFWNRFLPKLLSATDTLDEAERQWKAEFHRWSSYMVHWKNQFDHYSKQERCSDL

Turning to `COc1ccc2c(N(C)CCC3CCN(Cc4ccccc4)CC3)noc2c1` [6-Methoxy-N-methyl-N-[2-[4-(1-phenylmethyl)piperdinyl]ethyl]-1,2-benzisoxazol-3-amine sesquihydrochloride], the IC50 at Brain AChE (setting [1]) amounted to 4 µM.

Regarding `N[C@@H]1C[C@H]1c1ccccc1` (relative stereo) [tranylcypromine], in the assay with monoamine oxidase, the “selectivity of monoamine oxidase inhibition (type A / type B)” value is reported as “nonselective inhibitors”.

Consider `C#CCN(C)C(C)Cc1ccccc1` (stereo not shown) [deprenyl], for which the “selectivity of monoamine oxidase inhibition (type A / type B)” value in the assay on monoamine oxidase is “selective inhibitors of the type B enzyme”.

`c1ccc2c(NCCN3CCOCC3)noc2c1` [N-[2-(4-Morpholinyl)ethyl]-1,2-benzisoxazol-3-amine]: the inhibition at 50 mg/kg at MAO-A (setting [2]) is 88%; at MAO-A (setting [3]) it was 85%; on MAO-A (setting [4]), 68%; at MAO-A (setting [5]) it was 3.5%; at MAO-B (setting [6]), 52%; at MAO-B (setting [7]) it was 45%. The inhibition at 50 mg/kg worked out at 33% at MAO-B (setting [8]) and 0% on MAO-B (setting [9]).

Consider `CC(C)NNC(=O)c1ccncc1` [iproniazid], for which the “selectivity of monoamine oxidase inhibition (type A / type B)” value with monoamine oxidase is on record as “nonselective inhibitors”.

With `C#CCN(C)CCCOc1ccc(Cl)cc1Cl` [Clorgyline], the “selectivity of monoamine oxidase inhibition (type A / type B)” value in the assay with monoamine oxidase is given as “selective inhibitor of the type A enzyme”.

Turning to `C#CCN(C)Cc1ccccc1` [pargyline], the “selectivity of monoamine oxidase inhibition (type A / type B)” value with monoamine oxidase is recorded as “selective inhibitors of the type B enzyme”.

Consider `CN(C)C(=O)Oc1ccc2c(N3CCN(c4ccncc4)CC3)noc2c1` [3-[1-(4-Pyridyl)piperazinyl]-1,2-benzisoxazol-6-yl dimethylcarbamate], for which the IC50 against Brain AChE was 0.88 µM.

`CN(C)C(=O)Oc1ccc2c(N(C)CCN3CCOCC3)noc2c1Br` [7-Bromo-3-[N-methyl, N,2-(4-morpholinyl)ethyl]amino-1,2-benzisoxazol-6-yl dimethylcarbamate]: the IC50 at Brain AChE was 2 µM.

Regarding `CN(CCN1CCOCC1)c1noc2ccccc12` [N-methyI-N-[2-(4-morpholinyl)ethyl]-1,2-benzisoxazol-3-amine], the inhibition at 50 mg/kg at MAO-A (setting [2]) was found to be 78%; at MAO-A (setting [3]), 66%; at MAO-A (setting [4]), 76%; on MAO-A (setting [5]), 11%; on MAO-B (setting [6]), 32%; at MAO-B (setting [7]) it was 25%. The inhibition at 50 mg/kg at MAO-B (setting [8]) came to 36%; on MAO-B (setting [9]) it was 0%.

As for `CNC(=O)Oc1ccc2c(N(C)CCN3CCOCC3)noc2c1` [3-[[2-(4-Morpholinyl)ethyl]methylamino]1,2-benzisoxazol-6-yl methylcarbamate], the IC50 at Brain AChE amounted to 13 µM. The inhibition at 50 mg/kg at MAO-A (read-out: Ex vivo inhibition (%) of monoamine oxidase Type A, 50 mg/kg, p.o., 0.5 h) was 26%; at MAO-A (read-out: Ex vivo inhibition (%) of monoamine oxidase Type A, 50 mg/kg, p.o., 1.0 h), 29%; at MAO-A (read-out: Ex vivo inhibition (%) of monoamine oxidase Type A, 50 mg/kg, p.o., 4.0 h), 42%; at MAO-A (read-out: Ex vivo inhibition (%) of monoamine oxidase Type A, 50 mg/kg, p.o., 24.0 h) it was 14%; at MAO-B (read-out: Ex vivo inhibition (%) of monoamine oxidase Type B, 50 mg/kg, p.o., 0.5 h) it was 19%; at MAO-B (read-out: Ex vivo inhibition (%) of monoamine oxidase Type B, 50 mg/kg, p.o., 1.0 h), 19%. Besides, the inhibition at 50 mg/kg was 28% at MAO-B (read-out: Ex vivo inhibition (%) of monoamine oxidase Type B, 50 mg/kg, p.o., 4.0 h) and 12% at MAO-B (read-out: Ex vivo inhibition (%) of monoamine oxidase Type B, 50 mg/kg, p.o., 24.0 h).

Turning to `COc1ccc2c(N3CCN(c4ccncc4)CC3)noc2c1Br` [7-Bromo-6-methoxy-3-[1-(4-pyridyl)piperazinyl]-1,2-benzisoxazole], the IC50 at Brain AChE (setting [1]) is 14 µM.

Source of the values: US5580982A, “Substituted 3-(aminoalkylamino)-1,2-benzisoxazoles and related compounds” (priority 1995, dated 1996).
